Laboratory results as given in US11457627B2, “Plant activator” (IBIDEN CO., LTD., priority 2017, dated 2022).

Key:
PDF1.2 gene = test: Evaluation of the resistance gene expression (real-time PCR), PDF1.2; assay type: in vivo, Arabidopsis thaliana; conditions: 0.012% in 0.15% potassium bicarbonate (FIG. 1) or 0.15% dipotassium hydrogenphosphate (FIG. 2) aqueous solution, watering of roots, RNA 24 hours after treatment
Experimental: (§1) As Example 1, 0.15% potassium bicarbonate aqueous solution containing 0.012% of 13-oxo-9,11-octadecadienoic acid was prepared. (9Z,11E)-13-oxo-9,11-octadecadienoic acid (13-oxoODA, Cayman Chemical Company, INC.) was used as a 13-oxo-9,11-octadecadienoic acid. […]
(§2) Each of the aqueous solutions obtained from Examples 1 and 2 was applied using the watering to treat only the roots (underground part) of Arabidopsis thaliana plants grown in the soil. The total RNA was isolated 24 hours after treatment from each Arabidopsis thaliana plant treated with each of the aqueous solutions and from the untreated Arabidopsis thaliana plant as a control, and the cDNA was synthesized from the isolated total RNA, and then the expression levels of resistance genes, PR1, PR2 and PDF1.2 were analyzed by real-time PCR. […]

[1] = tested on: resistance genes, PR1, PR2 and PDF1.2; test: Resistance-inducing effect (expression of resistance genes overall); assay type: in vivo, Arabidopsis thaliana; conditions: used instead of the oxo fatty acid
Experimental: As Example 1, 0.15% potassium bicarbonate aqueous solution containing 0.012% of 13-oxo-9,11-octadecadienoic acid was prepared. (9Z,11E)-13-oxo-9,11-octadecadienoic acid (13-oxoODA, Cayman Chemical Company, INC.) was used as a 13-oxo-9,11-octadecadienoic acid. As Comparative Examples, 0.15% potassium bicarbonate aqueous solution containing 0.012% of a fatty acid analog, which is selected from 13-HPODE ((9Z,11E)-13-hydroperoxy-9,11-octadecadienoic acid, Cayman Chemical Company, INC.), 9-HPODE ((10Z,12E)-9-hydroperoxy-10,12-octadecadienoic acid, Cayman Chemical Company, INC.), 9-HPOTE ((10E,12Z,15Z)-9-hydroperoxy-10,12,15-octadecatrienoic acid, Cayman Chemical Company, INC.), 9-HOTE ((10E,12Z,15Z)-9-hydroxy-10,12,15-octadecatrienoic acid, Cayman Chemical Company, INC.), 13-HPOTE ((9Z, 11E, 15Z)-13-hydroperoxy-9,11,15-octadecatrienoic acid, Cayman Chemical Company, INC.), 13-HOTE ((9Z, 11E, 15Z)-13-hydroxy-9,11,15-octadecatrienoic acid, Cayman Chemical Company, INC.) and 12-OPDA (12-oxo-phytodienoic acid, Cayman Chemical Company, INC.), and 0.15% potassium bicarbonate aqueous solution containing 0.012% of an α-ketol fatty acid were prepared. An aqueous solution of α-ketol fatty acid was prepared according to the preparation method described below.
As Example 2, 0.15% dipotassium hydrogenphosphate aqueous solution containing 0.012% of 13-oxo-9,11-octadecadienoic acid was prepared. (9Z,11E)-13-oxo-9,11-octadecadienoic acid (13-oxoODA, Cayman Chemical Company, INC.) was used as a 13-oxo-9,11-octadecadienoic acid. […]
as §2

PR1 gene = test: Evaluation of the resistance gene expression (real-time PCR), PR1; assay type: in vivo, Arabidopsis thaliana; conditions: 0.012% in 0.15% potassium bicarbonate (FIG. 1) or 0.15% dipotassium hydrogenphosphate (FIG. 2) aqueous solution, watering of roots, RNA 24 hours after treatment
Experimental: as §1, §2

PR2 gene = test: Evaluation of the resistance gene expression (real-time PCR), PR2; assay type: in vivo, Arabidopsis thaliana; conditions: 0.012% in 0.15% potassium bicarbonate (FIG. 1) or 0.15% dipotassium hydrogenphosphate (FIG. 2) aqueous solution, watering of roots, RNA 24 hours after treatment
Experimental: as §1, §2

[2] = biological target: T1, PPARα (peroxisome proliferator-activated receptor α) (Homo sapiens, UniProt Q07869); conditions: known from prior art; cited from earlier work
T1 sequence (Q07869 1-468): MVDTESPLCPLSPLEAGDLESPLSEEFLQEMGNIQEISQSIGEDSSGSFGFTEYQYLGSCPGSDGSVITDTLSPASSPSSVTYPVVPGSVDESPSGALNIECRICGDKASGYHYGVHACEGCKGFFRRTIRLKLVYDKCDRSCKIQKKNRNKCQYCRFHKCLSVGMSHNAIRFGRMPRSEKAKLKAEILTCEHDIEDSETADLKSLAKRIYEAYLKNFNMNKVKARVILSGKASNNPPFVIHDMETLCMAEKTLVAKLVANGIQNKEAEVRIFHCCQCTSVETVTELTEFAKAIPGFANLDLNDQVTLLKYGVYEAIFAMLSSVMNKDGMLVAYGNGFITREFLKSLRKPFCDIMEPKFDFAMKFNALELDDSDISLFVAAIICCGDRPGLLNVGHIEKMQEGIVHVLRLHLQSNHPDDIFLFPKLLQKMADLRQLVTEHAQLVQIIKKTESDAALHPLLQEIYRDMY

Compound	resistance-inducing effect (effect on the expression of resistance-inducing traits) [1]	other results
CC/C=C\C[C@@H]1C(=O)C=C[C@@H]1CCCCCCCC(=O)O [12-OPDA, 12-oxo-phytodienoic acid]		expression level of resistance gene PDF1.2 (PDF1.2 gene): induced the expression
CC/C=C\CC(/C=C/C=C\CCCCCCCC(=O)O)OO (centres unmarked) [13-HPOTE, (9Z, 11E, 15Z)-13-hydroperoxy-9,11,15-octadecatrienoic acid]	does not provide any resistance-inducing effect	
CCCCCC(=O)/C=C/C=C\CCCCCCCC(=O)O [13-oxoODA, (9Z,11E)-13-oxo-9,11-octadecadienoic acid]		expression level of resistance gene PR1 (PR1 gene): significantly higher expressions; expression level of resistance gene PR2 (PR2 gene): significantly higher expressions; agonist activity to activate transcription factor PPARα [2]: strong agonist activity
hydroperoxy octadecatrienoic acid [HPOTE]	is not obtained	
hydroperoxyoctadecadienoic acid [HPODE]	is not obtained	
hydroxy octadecatrienoic acid [HOTE]	is not obtained	
